Data on seven compounds can be found in article PMC7465344 (Pharmaceuticals, 2020).

One series addresses T1, hA2B AR (Homo sapiens, UniProt P29275).
T1 construct: expressed in transfected cells; host or cells: CHO cells
T1 sequence (P29275 1-332): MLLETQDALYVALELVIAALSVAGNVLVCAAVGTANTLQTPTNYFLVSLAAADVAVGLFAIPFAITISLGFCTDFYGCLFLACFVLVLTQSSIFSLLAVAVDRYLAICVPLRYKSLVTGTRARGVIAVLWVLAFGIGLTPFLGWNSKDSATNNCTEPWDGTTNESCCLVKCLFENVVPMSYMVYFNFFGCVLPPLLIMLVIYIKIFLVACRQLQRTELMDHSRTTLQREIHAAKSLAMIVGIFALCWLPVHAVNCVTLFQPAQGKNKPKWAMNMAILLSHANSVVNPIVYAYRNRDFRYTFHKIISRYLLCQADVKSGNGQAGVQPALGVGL
As to the kind of experiment: Inhibition of NECA stimulated adenylyl cyclase activity (cAMP assay) in CHO cells expressing hA2B receptor. The series is classed as cell-based. To be noted: for inhibition at 10 µM: CHO, at 10 μM of tested compound, cAMP assay, read-out: hA2BAR percentage of inhibition (I%); for IC50: NECA stimulated cAMP, hA2B CHO cells, read-out: hA2BAR IC50 (potency in cAMP assay). An excerpt: At the end of the experiments, plates were read with the Perkin Elmer EnSight Multimode Plate Reader.

In the next series the target is T2, hA1 AR (Homo sapiens, UniProt P30542).
T2 sequence (P30542 1-326): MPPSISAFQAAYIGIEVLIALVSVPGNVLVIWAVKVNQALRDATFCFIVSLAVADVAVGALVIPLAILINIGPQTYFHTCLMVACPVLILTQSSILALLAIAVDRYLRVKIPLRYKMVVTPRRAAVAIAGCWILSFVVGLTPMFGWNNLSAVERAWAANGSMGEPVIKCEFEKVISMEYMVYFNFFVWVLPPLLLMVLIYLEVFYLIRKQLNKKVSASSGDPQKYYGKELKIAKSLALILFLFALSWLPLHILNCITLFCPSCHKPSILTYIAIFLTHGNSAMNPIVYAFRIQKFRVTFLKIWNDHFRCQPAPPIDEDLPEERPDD
Kind of series: Competition binding of [3H]DPCPX to hA1 AR in CHO cell membranes. The conditions noted are these: for hA1AR Ki: displacement of [3H]DPCPX, CHO cells, mean ± SEM, n = 3–6. (Displacement assays read how much labelled ligand stays bound in the presence of the test substance.)

Another series deals with hA2A AR (Homo sapiens, UniProt P29274). Kind of series: Competition binding of [3H]ZM241385 to hA2A AR in CHO cell membranes.
In a further series the target is T3, hA3 AR (Homo sapiens, UniProt P0DMS8).
T3 sequence (P0DMS8 1-318): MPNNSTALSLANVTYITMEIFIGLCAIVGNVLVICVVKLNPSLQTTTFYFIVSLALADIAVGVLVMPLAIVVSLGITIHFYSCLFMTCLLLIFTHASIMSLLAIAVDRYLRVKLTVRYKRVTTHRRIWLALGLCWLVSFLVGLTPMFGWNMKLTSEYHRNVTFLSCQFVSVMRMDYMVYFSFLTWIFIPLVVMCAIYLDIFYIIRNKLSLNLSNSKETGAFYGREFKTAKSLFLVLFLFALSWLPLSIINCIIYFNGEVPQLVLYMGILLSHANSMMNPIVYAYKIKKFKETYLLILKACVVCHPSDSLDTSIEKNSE
As to the kind of experiment: Competition binding of [125I]AB-MECA to hA3 AR in CHO cell membranes. The conditions noted are these: for inhibition at 10 µM: read-out: hA3AR percentage of inhibition (I%).

Bounds are passed on as bounds.

Chain of hA2A AR (P29274 whole entry): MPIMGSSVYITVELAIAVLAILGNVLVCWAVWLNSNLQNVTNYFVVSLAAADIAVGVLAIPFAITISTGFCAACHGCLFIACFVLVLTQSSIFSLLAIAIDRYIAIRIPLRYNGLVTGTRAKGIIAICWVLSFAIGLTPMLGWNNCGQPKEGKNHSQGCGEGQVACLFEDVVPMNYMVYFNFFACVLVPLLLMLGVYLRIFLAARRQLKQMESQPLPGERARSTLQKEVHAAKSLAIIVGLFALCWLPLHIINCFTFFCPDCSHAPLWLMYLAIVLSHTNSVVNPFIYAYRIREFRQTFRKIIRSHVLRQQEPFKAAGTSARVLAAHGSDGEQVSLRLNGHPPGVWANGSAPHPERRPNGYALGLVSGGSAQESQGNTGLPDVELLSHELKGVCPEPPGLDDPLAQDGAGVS
Experimental for hA1 AR: (§1) For membrane preparation, the cells were washed with phosphate-buffered saline and scraped off T75 flasks in an ice-cold hypotonic buffer (5 mMTris-HCl, 1 mM EDTA, pH 7.4). The cell suspensions were homogenized with a Polytron, centrifuged for 30 min at 40,000× g at 4 °C and the resulting membrane pellets were used for competition binding experiments [44].
(§2) Non-specific binding was defined as binding in the presence of 1 μM DPCPX and was always <10% of the total binding [44]. […] Non-specific binding was defined as binding in the presence of 1 μM ABMECA and was always < 10% of the total binding [46]. Bound and free radioactivity were separated by filtering the assay mixture through Whatman GF/B glass fiber filters using a Brandel cell harvester (Brandel Instruments, Unterföhring, Germany).
(§3) The protein concentration was determined according to a Bio-Rad method with bovine albumin as a standard reference. […] Ki and IC50 values were calculated by the non-linear regression analysis using the equation for a sigmoid concentration-response curve (Graph-PAD Prism, San Diego, CA, USA).
Experimental for hA2A AR: as §1, §2, §3
Experimental for hA3 AR: as §1, §2, §3

What is called inhibition is the change of the read-out against control, counted positive when it falls. As a reminder, the IC50 is the concentration needed to halve the response being measured. One may read the melting point as the temperature of the solid-liquid transition. The term Ki denotes the equilibrium dissociation constant of an inhibitor or competing ligand from its target. Higher therefore signals lower affinity. Consider `Nc1nc(N2CCN(C(=O)c3ccco3)CC2)nc2sc(-c3ccco3)nc12` [compound 6, (4-(7-Amino-2-(furan-2-yl)thiazolo[5,4-d]pyrimidin-5-yl)piperazin-1-yl)(furan-2-yl)methanone], for which the melting point was in the range of 227 to 229 °C. Moreover, at hA2B AR, the inhibition at 10 µM turned out to be 10% and the IC50 was above 10000 nM. The Ki at hA1 AR worked out at 2770 ± 249 nM. The affinity on hA2A AR corresponds to a Ki of 137 ± 11 nM. Besides, the Ki at hA3 AR worked out at 816 ± 74 nM.

Turning to `Nc1nc(N2CCN(Cc3ccccc3)CC2)nc2sc(-c3ccco3)nc12` [compound 3, 5-(4-Benzylpiperazin-1-yl)-2-(furan-2-yl)thiazolo[5,4-d]pyrimidin-7-amine], the melting point lay in the range of 181 to 183 °C. The inhibition at 10 µM on hA2B AR is 26%. Further, on hA1 AR, the Ki was 180 ± 15 nM and the “hA1AR Ki” value is on record as “good affinities”. Besides, the Ki at hA2A AR turned out to be 58 ± 5 nM. At hA3 AR, this compound had a Ki of 868 ± 82 nM.

Regarding `Nc1nc(N2CCC(Cc3ccccc3)CC2)nc2sc(-c3ccco3)nc12` [compound 1, 5-(4-Benzylpiperidin-1-yl)-2-(furan-2yl)thiazolo[5,4-d]pyrimidin-7-amine], the melting point was 197 to 199 °C. For the same compound, on hA2B AR, the inhibition at 10 µM was 21% and the IC50 is above 10000 nM. The same compound displayed a Ki on hA1 AR of 586 ± 37 nM. This compound had a Ki on hA2A AR of 594 ± 48 nM. In addition, at hA3 AR, the Ki was above 10000 nM and the inhibition at 10 µM was 8%.

On to `Nc1nc(N2CCN(CCc3ccccc3)CC2)nc2sc(-c3ccco3)nc12` [compound 4, 2-(Furan-2-yl)-5-(4-phenethylpiperazin-1-yl)thiazolo[5,4-d]pyrimidin-7-amine], for which the melting point was 203 to 204 °C. At hA2B AR, the inhibition at 10 µM is 11% and the IC50 is above 10000 nM. At hA1 AR, the affinity corresponds to a Ki of 1210 ± 114 nM. On hA2A AR, this compound came in with a Ki of 237 ± 17 nM. The same compound displayed a Ki on hA3 AR of 197 ± 16 nM.

In turn, `CN(C)CCN1CCN(c2nc(N)c3nc(-c4ccco4)sc3n2)CC1` [compound 7, 5-(4-(2-(Dimethylamino)ethyl)piperazin-1-yl)-2-(furan-2-yl)thiazolo[5,4-d]pyrimidin-7-amine] returned a melting point of 183 to 186 °C. On hA2B AR, the inhibition at 10 µM was found to be 23% and the IC50 is above 10000 nM. At hA1 AR, the Ki was found to be 345 ± 28 nM. In addition, the Ki on hA2A AR stood at 29 ± 3 nM. Also, on hA3 AR, the Ki is above 10000 nM and the inhibition at 10 µM turned out to be 34%.

In turn, `Nc1nc(NCCN2CCN(Cc3ccccc3)CC2)nc2sc(-c3ccco3)nc12` [compound 12, N^5-(2-(4-Benzylpiperazin-1-yl)ethyl)-2-(furan-2-yl)thiazolo[5,4-d]pyrimidine-5,7-diamine] returned a melting point of 133 to 135 °C. On hA2B AR, the inhibition at 10 µM was determined as 26% and the IC50 is above 10000 nM. On hA1 AR, this compound displayed a Ki of 798 ± 72 nM. The compound further returned a Ki at hA2A AR of 92 ± 8 nM. Further, at hA3 AR, the Ki was above 10000 nM and the inhibition at 10 µM was found to be 17%.

In turn, `COc1ccc(CN2CCC(CNc3nc(N)c4nc(-c5ccco5)sc4n3)CC2)cc1` [compound 20, 2-(Furan-2-yl)-N^5-((1-(4-methoxybenzyl)piperidin-4-yl)methyl)thiazolo[5,4-d]pyrimidine-5,7-diamine] returned a melting point of 182 to 183 °C. In addition, on hA2B AR, the inhibition at 10 µM was 24% and the IC50 is above 10000 nM. Besides, on hA1 AR, the Ki is 152 ± 11 nM and the “hA1AR Ki” value is “good affinities”. For the same compound, the affinity at hA2A AR corresponds to a Ki of 88 ± 9 nM. At hA3 AR, the Ki was above 10000 nM and the inhibition at 10 µM came out at 29%.
